Consider 17 compounds from EP4775575A1, “COMPOUND USED AS CDK4 KINASE INHIBITOR AND USE THEREOF” (TYK Medicines, Inc., priority 2023, dated 2025).

For one series, the target named is T1, CDK6/CyclinD3 (Homo sapiens, UniProt Q00534).
T1 construct: purchased Carna 04-107
The experiment in a line: Kinase activity assay (MSA, EZ Reader) against CDK6. Format: biochemical. Particulars: CDK6/CyclinD3 5.00 nM, ATP 350 µM, FL-Peptide34, 10mM MgCl2.

For series [1], the system named is human mantle cell lymphoma cells JEKO-1. Kind of series: Cell anti-proliferation assay (MTT), JEKO-1. The series is classed as cell-based. Particulars: Homo sapiens, 120 h, JEKO-1 cells, incubated for 5 days. On the procedure: (§1) Human breast cancer cells MCF-7, human ovarian cancer cells A2780, human mantle cell lymphoma cells JEKO-1. DMEM medium (Bio-Channel), DMSO (dimethyl sulfoxide), MTT (thiazolyl blue), 0.25% EDTA-Trypsin (trypsin digestive solution), 1×PBS (phosphate buffered saline, pH 7.2), 96-well plate (Corning), fetal bovine serum (FBS), 10,000 U/mL penicillin-G/streptomycin, high-speed refrigerated centrifuge (EPPENDORF 5810R), and microplate reader (Tecan Spark).
(§2) • A) Tumor cells were cultured in DMEM (high glucose, containing 10% FBS and 100 U/mL penicillin-G/streptomycin) at 37 °C, 5% CO2 and saturated humidity until 80-90% confluence. • B) The medium in the 10 cm culture dish was removed. • C) Cells were rinsed once with 10 mL of 1×PBS. • D) 4 mL of 0.25% EDTA-Trypsin was added, and the cells were digested in a 37 °C, 5% CO2 incubator for 5 minutes. The mixture was transferred to a 15 mL centrifuge tube, centrifuged at 200 g for 5 minutes, and the supernatant was discarded to obtain cell pellet. • E) The cells were resuspended in 4 mL of DMEM medium, counted, and adjusted to 50,000 cells/mL. • F) 100 µL of cell suspension was added to each well of a 96-well plate, and the plate was incubated overnight at 37 °C in a 5% CO2 incubator.
(§3) • A) Gradient dilution solutions of the test compounds were prepared: the test compound was prepared into a 1 mM stock solution. Then 1.5 µL of the stock solution was dissolved in 1.5 mL of DMSO-free medium, followed by 3-fold serial gradient dilution with medium containing 0.1% DMSO to give 9 concentrations.
(§4) • A) The cell culture plate was taken out, and 10 µL of 5 mg/mL MTT was added in a biological safety cabinet; • B) The plate was returned to the incubator and incubated for another 3 hours; • C) The cell culture plate was taken out and the medium was removed, 100 µL of isopropanol (containing 0.4 mM HCl, 0.1% NP-40) was added, and the plate was shaken at room temperature for 30 minutes; • D) The absorbance at 570 nm was measured using a TECAN microplate reader.

The subject of series [2] is human ovarian cancer cells A2780. The experiment in a line: Cell anti-proliferation assay (MTT), A2780. The following applies: Homo sapiens, 120 h, incubated for 5 days. Format: cell-based. The protocol:
as §1, §2, §3, §4

Series [3] deals with Human breast cancer cells MCF-7. Kind of series: Cell anti-proliferation assay (MTT), MCF-7. Format: cell-based. Particulars: Homo sapiens, MCF7, 120 h, MCF-7 cells, incubated for 5 days. On the procedure: as §1, §2, §3, §4
A further series has as its target CDK4/CycD1 (Homo sapiens, UniProt P11802). Kind of series: Kinase activity assay (MSA, EZ Reader) against CDK4.
Series [4] is described as follows: Preclinical pharmacokinetic study in rats. Format: in vivo, Sprague-Dawley (SD) rats. The following applies: male SD rats, oral gavage (p.o.) 10 mg/kg, plasma. The protocol: Healthy adult Sprague-Dawley (SD) rats, male, 6-8 weeks old, weighing 200-300 g. EDTA-Na2 anticoagulant. Analytical balance, animal weighing scale, magnetic stirrer, refrigerated centrifuge, single-channel manual pipette, etc. About 10 mg of the test sample was precisely weighed, dissolved in a calculated volume of 5% DMSO, followed by addition of 10% solutol HS-15 and 85% normal saline. The mixture was sonicated and vortexed to homogeneity to obtain a solution with a concentration of 1 mg/mL. The solution was freshly prepared before use. Animals were housed in rat cages and fasted overnight (no less than 10 h) before the test, with free access to water. On the day of the test, animals were weighed and marked on the tail. Blank blood samples were collected before administration. The blood was collected via tail vein. • Route of administration: oral gavage (p.o.) • Dose: 10 mg/kg • Dosing volume: 10 mL/kg • Procedure: The rat was held upright with the left hand wearing bite-resistant glove. A 16-gauge gavage needle was inserted through the mouth into the esophagus. The needle was advanced gently without obvious resistance, and the drug solution was injected into the stomach. Whole blood (0.1 mL) were collected from each test animal before administration and at 0.5 […], and 24 h after administration into EDTA-Na2 anticoagulant tubes. The tubes were inverted 3-4 times for mixing, then centrifuged at 10,000 g for 5 min at 4 °C to separate plasma. Plasma samples were stored at -80 °C until analysis. Blood was collected via tail vein. […] The mixture was vortexed for 2 min and centrifuged at 10,000 g for 10 min at 4 °C. Processing of unknown plasma samples: 25 μL of drug-containing rat plasma was transferred, followed by addition of 25 μL of methanol and 200 μL of internal standard solution. The mixture was vortexed for 2 min and centrifuged at 10,000 g for 10 min at 4 °C. The supernatant was collected for LC-MS/MS analysis. A quantitative method for the determination of the test compound was established using a Shimadzu liquid chromatography system coupled with Triple Quad^TM 6500+ AB mass spectrometer. The concentration of the parent drug in plasma was determined. The plasma concentration-time curve was plotted, and the main pharmacokinetic parameters were calculated using a non-compartmental model in winnonlin Phoenix software.

The structures appear in SMILES notation. Bounds are passed on as bounds.

T1 sequence (Q00534 whole entry): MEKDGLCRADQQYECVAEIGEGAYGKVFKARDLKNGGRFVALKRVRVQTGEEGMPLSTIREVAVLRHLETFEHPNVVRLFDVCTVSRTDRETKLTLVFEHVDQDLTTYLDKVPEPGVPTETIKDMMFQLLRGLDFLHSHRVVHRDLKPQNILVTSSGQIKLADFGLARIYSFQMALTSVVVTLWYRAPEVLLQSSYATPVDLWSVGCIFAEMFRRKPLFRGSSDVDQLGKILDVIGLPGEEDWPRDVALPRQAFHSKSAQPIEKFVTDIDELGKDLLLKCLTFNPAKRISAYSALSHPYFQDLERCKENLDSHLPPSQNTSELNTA
T1 sequence (P30281 whole entry partner): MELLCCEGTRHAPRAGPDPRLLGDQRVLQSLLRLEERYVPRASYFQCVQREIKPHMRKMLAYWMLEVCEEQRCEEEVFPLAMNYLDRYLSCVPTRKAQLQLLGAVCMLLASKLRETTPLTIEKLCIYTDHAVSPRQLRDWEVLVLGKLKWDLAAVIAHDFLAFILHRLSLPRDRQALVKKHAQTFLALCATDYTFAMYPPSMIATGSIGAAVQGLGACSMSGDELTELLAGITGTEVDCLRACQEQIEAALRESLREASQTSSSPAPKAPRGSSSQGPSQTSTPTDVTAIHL
Chain of CDK4/CycD1 (P11802 whole entry): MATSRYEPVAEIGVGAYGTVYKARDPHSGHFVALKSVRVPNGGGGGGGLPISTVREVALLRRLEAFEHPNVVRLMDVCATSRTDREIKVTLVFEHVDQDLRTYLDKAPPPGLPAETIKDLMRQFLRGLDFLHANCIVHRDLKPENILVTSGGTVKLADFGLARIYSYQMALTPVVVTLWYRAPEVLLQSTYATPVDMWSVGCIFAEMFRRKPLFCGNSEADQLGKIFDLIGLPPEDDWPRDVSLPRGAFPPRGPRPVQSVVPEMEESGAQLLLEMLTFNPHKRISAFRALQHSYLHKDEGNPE

As for `CN1CCn2c1nc1c(F)cc(-c3nc(N[C@@H]4CCOC[C@H]4O)ncc3Cl)cc12` [TB-45, (3S,4R)-4-((5-chloro-4-(8-fluoro-1-methyl-2,3-dihydro-1H-benzo[d]imidazo[1,2-a]imidazol-6-yl)pyrimidin-2-yl)amino)tetrahydro-2H-pyran-3-ol], the IC50 on CDK6/CyclinD3 is 241 nM; in series [1], at most 500 nM; in series [2] it was at most 500 nM; in series [3], at most 500 nM.

For `CN1C(=O)CCn2c1nc1c(F)cc(-c3nc(N[C@@H]4CCOC[C@H]4O)ncc3Cl)cc12` [TB-46, 7-(5-chloro-2-(((3S,4R)-3-hydroxytetra hydro-2H-pyran-4-yl)amino)pyrimidin-4-yl)-9-fluoro-1-methyl-3,4-dihydrobenzo[4,5]imidazo[1,2-a]pyrimidin-2(1H)-one], the IC50 at CDK6/CyclinD3 is 244 nM; in series [1] it was at most 500 nM; in series [2] it was at most 500 nM; in series [3] it was at most 500 nM.

As for `C[C@H]1CCN(C)c2nc3c(F)cc(-c4nc(N[C@@H]5CCN(S(C)(=O)=O)C[C@H]5O)ncc4Cl)cc3n21` [TB-96], the values for the IC50 at CDK6/CyclinD3 and on CDK4/CycD1 were 20.3 nM and 2.1 nM, respectively.

`CC(C)n1c(N2CCCOC2=O)nc2c(F)cc(-c3nc(NC4CCN(S(C)(=O)=O)CC4)ncc3Cl)cc21` [TB-142]: the values for the IC50 on CDK6/CyclinD3 and on CDK4/CycD1 were 361 nM and 69.5 nM, respectively.

As for `COCc1cc(Nc2ncc(Cl)c(-c3cc(F)c4nc5n(c4c3)CCCN5C)n2)ccn1` [TB-130, 5-chloro-4-(9-fluoro-1-methyl-1,2,3,4-tetrahydrobenzo[4,5]imidazo[1,2-a]pyrimidin-7-yl)-N-(2-(methoxymethyl)pyridin-4-yl)pyrimidin-2-amine], the IC50 at CDK6/CyclinD3 was 155 nM; in series [1], at most 500 nM; in series [2], at most 500 nM; in series [3], at most 500 nM.

As for `CN1CCn2c1nc1c(F)cc(-c3nc(NC4CCN(S(C)(=O)=O)CC4)ncc3Cl)cc12` [TB-52, 5-chloro-4-(8-fluoro-1-methyl-2,3-dihydro-1H-benzo[d]imidazo[1,2-a]imidazol-6-yl)-N-(1-(methylsulfonyl)piperidin-4-yl)pyrimidin-2-amine], the half-inhibitory concentration (IC50) at CDK6/CyclinD3 is 40.6 nM; in series [1] it was at most 500 nM; in series [2] it was at most 500 nM; in series [3], at most 500 nM.

`CC(C)n1c(N(C)C)nc2c(F)cc(-c3nc(N[C@H]4CC[C@@H](NS(C)(=O)=O)CC4)ncc3Cl)cc21` [TB-4] gave an IC50 on CDK4/CycD1 of 27.1 nM.

`CC1CCN(C)c2nc3c(F)cc(-c4nc(N[C@@H]5CCOC[C@H]5O)ncc4Cl)cc3n21` (mixture of isomers) [TB-44, (3S,4R)-4-((5-chloro-4-(9-fluoro-1,4-dimethyl-1,2,3,4-tetrahydrobenzo[4,5]imidazo[1,2-a]pyrimidin-7-yl)pyrimidin-2-yl)amino)tetrahydro-2H-pyran-3-ol]: the IC50 against CDK6/CyclinD3 was 90.2 nM; in series [1], at most 500 nM; in series [2] it was at most 500 nM; in series [3], at most 500 nM.

As for `C[C@H]1CCN(C)c2nc3c(F)cc(-c4nc(N[C@@H]5CCOC[C@H]5O)ncc4Cl)cc3n21` [TB-92, (3S,4R)-4-((5-chloro-4-((S)-9-fluoro-1,4-dimethyl-1,2,3,4-tetrahydrobenzo[4,5]imidazo[1,2-a]pyrimidin-7-yl)pyrimidin-2-yl)amino)tetrahydro-2H-pyran-3-ol], the AUC(0-t) in series [4] (Sprague-Dawley, rat) was found to be 5020 ng·h/mL. In series [4] (Sprague-Dawley, rat), this compound registered a Cmax of 1940 ng/mL. Besides, the Tmax in series [4] (Sprague-Dawley, rat) amounted to 30 min. Further, the “HL_” value in series [4] is on record as 1.21 h. The IC50 against CDK6/CyclinD3 was 123 nM; in series [1] it was at most 500 nM; in series [2] it was at most 500 nM; in series [3], at most 500 nM.

Consider `CN1CCCn2c1nc1c(F)cc(-c3nc(Nc4ccncc4)ncc3Cl)cc12` [TB-90], for which the IC50 against CDK6/CyclinD3 was 95.2 nM; in series [1], at most 500 nM; in series [2], at most 500 nM; in series [3] it was 500 to 2000 nM.

With `CNS(=O)(=O)N1CCC(Nc2ncc(Cl)c(-c3cc(F)c4nc5n(c4c3)CCCN5C)n2)CC1` [TB-144, 4-((5-chloro-4-(9-fluoro-1-methyl-1,2,3,4-tetrahydrobenzo[4,5]imidazo[1,2-a]pyrimidin-7-yl)pyrimidin-2-yl)amino)-N-methylpiperidine-1-sulfonamide], the IC50 was 126 nM on CDK6/CyclinD3, at most 500 nM in series [1], at most 500 nM in series [2] and at most 500 nM in series [3].

As for `CCS(=O)(=O)N1CCC(Nc2ncc(Cl)c(-c3cc(F)c4nc5n(c4c3)CCCN5C)n2)CC1` [TB-143, 5-chloro-N-(1-(ethylsulfonyl)piperidin-4-yl)-4-(9-fluoro-1-methyl-1,2,3,4-tetrahydrobenzo[4,5]imidazo[1,2-a]pyrimidin-7-yl)pyrimidin-2-amine], the IC50 against CDK6/CyclinD3 was 58.3 nM; in series [1], at most 500 nM; in series [2], at most 500 nM; in series [3], at most 500 nM.

In turn, `CC(C)n1c(N2CCCC2=O)nc2c(F)cc(-c3nc(N[C@@H]4CCOC[C@H]4O)ncc3Cl)cc21` [TB-23] came in with an IC50 on CDK4/CycD1 of 185 nM.

On to `CN1CCCn2c1nc1c(F)cc(-c3nc(N[C@@H]4CCOC[C@H]4O)ncc3Cl)cc12` [TB-40], for which the IC50 is 229 nM at CDK6/CyclinD3, at most 500 nM in series [1], at most 500 nM in series [2] and at most 500 nM in series [3].

`CN1CCCn2c1nc1c(F)cc(-c3nc(N[C@@H]4CCOC[C@H]4O)ncc3F)cc12` [TB-42, (3S,4R)-4-((5-fluoro-4-(9-fluoro-1-methyl-1,2,3,4-tetrahydrobenzo[4,5]imidazo[1,2-a]pyrimidin-7-yl)pyrimidin-2-yl)amino)tetrahydro-2H-pyran-3-ol]: the half-maximal inhibitory concentration (IC50) is 195 nM on CDK6/CyclinD3, at most 500 nM in series [1], at most 500 nM in series [2] and at most 500 nM in series [3].

For the compound `C[C@@H]1CCN(C)c2nc3c(F)cc(-c4nc(N[C@@H]5CCOC[C@H]5O)ncc4Cl)cc3n21` [TB-91, (3S,4R)-4-((5-chloro-4-((R)-9-fluoro-1,4-dimethyl-1,2,3,4-tetrahydrobenzo[4,5]imidazo[1,2-a]pyrimidin-7-yl)pyrimidin-2-yl)amino)tetrahydro-2H-pyran-3-ol], the IC50 on CDK6/CyclinD3 was 68.4 nM; in series [1] it was at most 500 nM; in series [2], at most 500 nM; in series [3] it was at most 500 nM.

Take `CN1CCCn2c1nc1c(F)cc(-c3nc(NC4CCOCC4)ncc3Cl)cc12` [TB-132, 5-chloro-4-(9-fluoro-1-methyl-1,2,3,4-tetrahydrobenzo[4,5]imidazo[1,2-a]pyrimidin-7-yl)-N-(tetrahydro-2H-pyran-4-yl)pyrimidin-2-amine]: the concentration for half-maximal inhibition (IC50) was 246 nM against CDK6/CyclinD3, at most 500 nM in series [1], at most 500 nM in series [2] and 500 to 2000 nM in series [3].
